Test results as given in PubChem BioAssay AID2060484 (Molecular Pharmacology Branch, DTP, NCI, 2025).

System: SUM149PT spheroids with HUVEC/MSC, viability
Assay: Anticancer human tumor SUM149PT cell line growth inhibition [GQUAD];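 further: spheroids exposed to drugs for seven days before readout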;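 on viability, T/C: percent viability relative to DMSO vehicle control taken as 100%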
Settings: for IC50: curve of first compound; for viability, T/C: stronger effect = lower value; active means viability on the fitted dose curve at most 10% of control; inactive means the rest
How it was run: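 Multi-cell-type spheroids of tumor cells with HUVEC and mesenchymal stem cells, treated with drug combinations. Concentrations descend in half-log steps from near clinical Cmax, or from 10 microM where Cmax is unknown; viability read-out.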

[1] = second compound 0.0316 µM, first compound 0.0316 µM
[2] = second compound 0.0316 µM, first compound 0.1 µM
[3] = second compound 0.0316 µM, first compound 0.316 µM
[4] = second compound 0.0316 µM, first compound 1 µM
[5] = second compound 0.0316 µM, first compound 3.16 µM
[6] = second compound 0.0316 µM, first compound 10 µM
[7] = second compound 0.1 µM, first compound 0.0316 µM
[8] = second compound 0.1 µM, first compound 0.1 µM
[9] = second compound 0.1 µM, first compound 0.316 µM
[10] = second compound 0.1 µM, first compound 1 µM
[11] = second compound 0.1 µM, first compound 3.16 µM
[12] = second compound 0.1 µM, first compound 10 µM
[13] = second compound 0.316 µM, first compound 0.0316 µM
[14] = second compound 0.316 µM, first compound 0.1 µM
[15] = second compound 0.316 µM, first compound 0.316 µM
[16] = second compound 0.316 µM, first compound 1 µM
[17] = second compound 0.316 µM, first compound 3.16 µM
[18] = second compound 0.316 µM, first compound 10 µM
[19] = second compound 1 µM, first compound 0.0316 µM
[20] = second compound 1 µM, first compound 0.1 µM
[21] = second compound 1 µM, first compound 0.316 µM
[22] = second compound 1 µM, first compound 1 µM
[23] = second compound 1 µM, first compound 3.16 µM
[24] = second compound 1 µM, first compound 10 µM
[25] = second compound 3.16 µM, first compound 0.0316 µM
[26] = second compound 3.16 µM, first compound 0.1 µM
[27] = second compound 3.16 µM, first compound 0.316 µM
[28] = second compound 3.16 µM, first compound 1 µM
[29] = second compound 3.16 µM, first compound 3.16 µM
[30] = second compound 3.16 µM, first compound 10 µM
[31] = second compound 10 µM, first compound 0.0316 µM
[32] = second compound 10 µM, first compound 0.1 µM
[33] = second compound 10 µM, first compound 0.316 µM
[34] = second compound 10 µM, first compound 1 µM
[35] = second compound 10 µM, first compound 3.16 µM
[36] = second compound 10 µM, first compound 10 µM

Cc1cccc(N(C)C(=O)C2C(O)CCN2c2nc(C)cc(C(F)(F)F)c2C#N)c1 (stereo not drawn) + CN(C)c1ccc(Nc2c3ccc(NC(=O)CCN4CCCC4)cc3nc3cc(NC(=O)CCN4CCCC4)ccc23)cc1
inactive: viability, T/C [1] 97.4% | viability, T/C [2] 103% | viability, T/C [3] 104% | viability, T/C [4] 103% | viability, T/C [5] 107% | viability, T/C [6] 110% | viability, T/C [7] 108% | viability, T/C [8] 95.3% | viability, T/C [9] 91.5% | viability, T/C [10] 100% | viability, T/C [11] 98.7% | viability, T/C [12] 103% | viability, T/C [13] 92.7% | viability, T/C [14] 93.7% | viability, T/C [15] 88.7% | viability, T/C [16] 101% | viability, T/C [17] 94% | viability, T/C [18] 90.6% | viability, T/C [19] 85.8% | viability, T/C [20] 85.2% | viability, T/C [21] 76.2% | viability, T/C [22] 87.9% | viability, T/C [23] 84.9% | viability, T/C [24] 81.5% | viability, T/C [25] 99.2% | viability, T/C [26] 71% | viability, T/C [27] 77.2% | viability, T/C [28] 77.1% | viability, T/C [29] 91.2% | viability, T/C [30] 68% | viability, T/C [31] 82.1% | viability, T/C [32] 82.3% | viability, T/C [33] 74.3% | viability, T/C [34] 76% | viability, T/C [35] 53% | viability, T/C [36] 37.9%
4020 nM: IC50 (second compound 10 µM)
> 10000 nM: IC50 (second compound 0.0316 µM) | IC50 (second compound 0.1 µM) | IC50 (second compound 0.316 µM) | IC50 (second compound 1 µM) | IC50 (second compound 3.16 µM)

O=c1[nH]cc(F)c(=O)[nH]1 + Cc1cnc(CNC(=O)c2c(=O)c3ccc(N4CCCN(C)CC4)nc3n3c2sc2ccccc23)cn1
< 31.6 nM: IC50 (second compound 1 µM) | IC50 (second compound 3.16 µM) | IC50 (second compound 10 µM)
1500 nM: IC50 (second compound 0.316 µM)
2120 nM: IC50 (second compound 0.1 µM)
2630 nM: IC50 (second compound 0.0316 µM)
inactive: viability, T/C [1] 86.5% | viability, T/C [2] 86.4% | viability, T/C [3] 99.3% | viability, T/C [4] 75.6% | viability, T/C [5] 46.1% | viability, T/C [6] 34.8% | viability, T/C [7] 73.6% | viability, T/C [8] 64% | viability, T/C [9] 82.7% | viability, T/C [10] 67.2% | viability, T/C [11] 40.8% | viability, T/C [12] 32% | viability, T/C [13] 51.1% | viability, T/C [14] 61.2% | viability, T/C [15] 55% | viability, T/C [16] 55.2% | viability, T/C [17] 40.5% | viability, T/C [18] 31.2% | viability, T/C [19] 43.4% | viability, T/C [20] 43.5% | viability, T/C [21] 51.5% | viability, T/C [22] 40.9% | viability, T/C [23] 35.8% | viability, T/C [24] 29.4% | viability, T/C [25] 38.2% | viability, T/C [26] 36.2% | viability, T/C [27] 38.7% | viability, T/C [28] 36.5% | viability, T/C [29] 36% | viability, T/C [30] 30.3% | viability, T/C [31] 18.6% | viability, T/C [32] 9.86% | viability, T/C [33] 31.9% | viability, T/C [34] 31.5% | viability, T/C [35] 11% | viability, T/C [36] 2.12%

Nc1ccn(C2OC(CO)C(O)C2(F)F)c(=O)n1 (stereo not drawn) + CN(C)c1ccc(Nc2c3ccc(NC(=O)CCN4CCCC4)cc3nc3cc(NC(=O)CCN4CCCC4)ccc23)cc1
inactive: viability, T/C [1] 87.9% | viability, T/C [2] 51% | viability, T/C [3] 34.6% | viability, T/C [4] 27.2% | viability, T/C [5] 25.9% | viability, T/C [6] 20.8% | viability, T/C [7] 80.2% | viability, T/C [8] 59.7% | viability, T/C [9] 39.6% | viability, T/C [10] 26.7% | viability, T/C [11] 23.7% | viability, T/C [12] 20.8% | viability, T/C [13] 68.1% | viability, T/C [14] 55.3% | viability, T/C [15] 34.7% | viability, T/C [16] 26.6% | viability, T/C [17] 25.6% | viability, T/C [18] 15.8% | viability, T/C [19] 65.8% | viability, T/C [20] 51.2% | viability, T/C [21] 32.7% | viability, T/C [22] 27.9% | viability, T/C [23] 21.4% | viability, T/C [24] 16.5% | viability, T/C [25] 65.4% | viability, T/C [26] 39.8% | viability, T/C [27] 24.3% | viability, T/C [28] 21.6% | viability, T/C [29] 17.8% | viability, T/C [30] 14.8% | viability, T/C [31] 55.1% | viability, T/C [32] 35.7% | viability, T/C [33] 25% | viability, T/C [34] 20.9% | viability, T/C [35] 18.8% | viability, T/C [36] 13.4%
173 nM: IC50 (second compound 0.1 µM)
62.8 nM: IC50 (second compound 3.16 µM)
42.1 nM: IC50 (second compound 10 µM)
128 nM: IC50 (second compound 0.316 µM)
110 nM: IC50 (second compound 0.0316 µM)
96.5 nM: IC50 (second compound 1 µM)

O=C(NO)c1cnc(N2CCN(S(=O)(=O)c3ccc4ccccc4c3)CC2)nc1 + CN(C)c1ccc(Nc2c3ccc(NC(=O)CCN4CCCC4)cc3nc3cc(NC(=O)CCN4CCCC4)ccc23)cc1
261 nM: IC50 (second compound 10 µM)
314 nM: IC50 (second compound 1 µM)
active: viability, T/C [4] 0.96% | viability, T/C [5] 1.31% | viability, T/C [6] 3.07% | viability, T/C [10] 0.82% | viability, T/C [11] 1.32% | viability, T/C [12] 2.31% | viability, T/C [16] 0.47% | viability, T/C [17] 1.57% | viability, T/C [18] 1.8% | viability, T/C [22] 0.55% | viability, T/C [23] 2.23% | viability, T/C [24] 1.4% | viability, T/C [28] 0.33% | viability, T/C [29] 0.17% | viability, T/C [30] 1.59% | viability, T/C [34] 0.97% | viability, T/C [35] 2.45% | viability, T/C [36] 1.01%
325 nM: IC50 (second compound 0.0316 µM)
322 nM: IC50 (second compound 0.316 µM)
335 nM: IC50 (second compound 3.16 µM)
inactive: viability, T/C [1] 108% | viability, T/C [2] 89.4% | viability, T/C [3] 54.2% | viability, T/C [7] 116% | viability, T/C [8] 98.7% | viability, T/C [9] 54% | viability, T/C [13] 104% | viability, T/C [14] 98.1% | viability, T/C [15] 51% | viability, T/C [19] 93% | viability, T/C [20] 96% | viability, T/C [21] 49.7% | viability, T/C [25] 86.6% | viability, T/C [26] 90.9% | viability, T/C [27] 52.6% | viability, T/C [31] 87.6% | viability, T/C [32] 70.2% | viability, T/C [33] 47.4%
326 nM: IC50 (second compound 0.1 µM)
